What was measured:
[1] = biological target: T1, Endothelin-1 receptor (Rattus norvegicus) (UniProt P26684); experiment: Concentration required to produce 50% inhibition of binding against ET A receptor obtained from rat thoracic aortic membrane
T1 sequence (whole entry): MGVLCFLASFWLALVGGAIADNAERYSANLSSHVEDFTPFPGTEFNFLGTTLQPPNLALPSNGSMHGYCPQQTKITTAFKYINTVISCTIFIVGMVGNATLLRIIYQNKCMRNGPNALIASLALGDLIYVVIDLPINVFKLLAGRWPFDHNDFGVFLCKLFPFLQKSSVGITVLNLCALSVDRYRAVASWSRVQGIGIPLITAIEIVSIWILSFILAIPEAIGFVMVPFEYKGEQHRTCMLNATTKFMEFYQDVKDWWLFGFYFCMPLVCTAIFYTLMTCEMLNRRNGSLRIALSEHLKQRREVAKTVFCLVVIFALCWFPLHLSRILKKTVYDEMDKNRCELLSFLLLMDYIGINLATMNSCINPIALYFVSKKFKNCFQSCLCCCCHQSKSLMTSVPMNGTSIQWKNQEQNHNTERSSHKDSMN

[2] = biological target: T2, Endothelin receptor type B (Rattus norvegicus) (UniProt P21451); experiment: Concentration required to produce 50% inhibition of binding against ET B receptor obtained from rat brain membrane
T2 sequence (whole entry): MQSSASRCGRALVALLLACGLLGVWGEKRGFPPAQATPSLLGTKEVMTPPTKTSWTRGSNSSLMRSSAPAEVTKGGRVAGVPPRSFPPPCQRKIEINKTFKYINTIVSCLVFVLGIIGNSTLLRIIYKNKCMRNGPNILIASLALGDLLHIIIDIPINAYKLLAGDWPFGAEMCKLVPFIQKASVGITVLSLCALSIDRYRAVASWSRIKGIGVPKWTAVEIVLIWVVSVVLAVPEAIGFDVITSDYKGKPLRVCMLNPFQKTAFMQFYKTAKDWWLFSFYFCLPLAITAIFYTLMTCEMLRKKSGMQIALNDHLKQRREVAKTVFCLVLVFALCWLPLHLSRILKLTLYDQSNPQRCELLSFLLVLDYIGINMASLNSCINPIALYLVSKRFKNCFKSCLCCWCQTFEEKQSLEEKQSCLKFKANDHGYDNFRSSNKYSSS

| pIC50 [1] | pIC50 [2] | Compound |
| --- | --- | --- |
| 7.59 | – | CC[C@@H](C)[C@H](NC(=O)[C@H](CC(=O)O)NC(=O)[C@H](CC(C)C)NC(=O)[C@H](Cc1c[nH]cn1)NC(=O)[C@H](CS)NC(=O)[C@H](Cc1ccccc1)NC(=O)[C@H](Cc1ccc(O)cc1)NC(=O)[C@@H](NC(=O)[C@H](CS)NC(=O)[C@H](CCC(=O)O)NC(=O)[C@H](CCCCN)NC(=O)[C@H](CC(=O)O)NC(=O)[C@H](CCSC)NC(=O)[C@H](CC(C)C)NC(=O)[C@H](CO)NC(=O)[C@H](CO)NC(=O)[C@H](CS)NC(=O)[C@H](CO)NC(=O)[C@@H](N)CS)C(C)C)C(=O)N[C@@H](C(=O)N[C@@H](Cc1c[nH]c2ccccc12)C(=O)O)[C@H](C)CC |
| 9.93 | – | CC[C@@H](C)[C@H](NC(=O)[C@H](CC(=O)O)NC(=O)[C@H](CC(C)C)NC(=O)[C@H](Cc1c[nH]cn1)NC(=O)[C@H](CS)NC(=O)[C@H](Cc1ccccc1)NC(=O)[C@H](Cc1ccc(O)cc1)NC(=O)[C@@H](NC(=O)[C@H](CS)NC(=O)[C@H](CCC(=O)O)NC(=O)[C@H](CCCCN)NC(=O)[C@H](CC(=O)O)NC(=O)[C@H](CCSC)NC(=O)[C@H](CC(C)C)NC(=O)[C@H](CO)NC(=O)[C@H](CO)NC(=O)[C@H](CS)NC(=O)[C@H](CO)NC(=O)[C@@H](N)CS)C(C)C)C(=O)N[C@H](C(=O)N[C@@H](Cc1c[nH]c2ccccc12)C(=O)O)[C@H](C)CC |
| 9 | 9.05 | CC[C@@H](C)[C@H](NC(=O)[C@H](CC(=O)O)NC(=O)[C@H](CC(C)C)NC(=O)[C@H](Cc1c[nH]cn1)NC(=O)[C@H](CS)NC(=O)[C@H](Cc1ccccc1)NC(=O)[C@H](Cc1ccc(O)cc1)NC(=O)[C@@H](NC(=O)[C@H](CS)NC(=O)[C@H](CCC(=O)O)NC(=O)[C@H](CCCCN)NC(=O)[C@H](CC(=O)O)NC(=O)[C@H](CCSC)NC(=O)[C@H](CC(C)C)NC(=O)[C@H](CO)NC(=O)[C@H](CO)NC(=O)[C@H](CS)NC(=O)[C@H](CO)NC(=O)[C@@H](N)CS)C(C)C)C(=O)N[C@@H](C(=O)N[C@@H](Cc1c[nH]c2ccccc12)C(=O)O)C(C)C |

The remaining lines, values behind:

| Compound | pIC50 [1] | pIC50 [2] |
| --- | --- | --- |
| CC[C@@H](C)[C@H](NC(=O)[C@H](CC(=O)O)NC(=O)[C@H](CC(C)C)NC(=O)[C@H](Cc1c[nH]cn1)NC(=O)[C@H](CS)NC(=O)[C@H](Cc1ccccc1)NC(=O)[C@H](Cc1ccc(O)cc1)NC(=O)[C@@H](NC(=O)[C@H](CS)NC(=O)[C@H](CCC(=O)O)NC(=O)[C@H](CCCCN)NC(=O)[C@H](CC(=O)O)NC(=O)[C@H](CCSC)NC(=O)[C@H](CC(C)C)NC(=O)[C@H](CO)NC(=O)[C@H](CO)NC(=O)[C@H](CS)NC(=O)[C@H](CO)NC(=O)[C@@H](N)CS)C(C)C)C(=O)N[C@H](C)C(=O)N[C@@H](Cc1c[nH]c2ccccc12)C(=O)O | 5.77 | 7.96 |
| CC[C@@H](C)[C@H](NC(=O)[C@H](CC(=O)O)NC(=O)[C@H](CC(C)C)NC(=O)[C@H](Cc1c[nH]cn1)NC(=O)[C@H](CS)NC(=O)[C@H](Cc1ccccc1)NC(=O)[C@H](Cc1ccc(O)cc1)NC(=O)[C@@H](NC(=O)[C@H](CS)NC(=O)[C@H](CCC(=O)O)NC(=O)[C@H](CCCCN)NC(=O)[C@H](CC(=O)O)NC(=O)[C@H](CCSC)NC(=O)[C@H](CC(C)C)NC(=O)[C@H](CO)NC(=O)[C@H](CO)NC(=O)[C@H](CS)NC(=O)[C@H](CO)NC(=O)[C@@H](N)CS)C(C)C)C(=O)N[C@H](C(=O)N[C@@H](Cc1c[nH]c2ccccc12)C(=O)O)c1ccccc1 | 8.89 | 9.76 |
| CCC[C@@H](NC(=O)[C@@H](NC(=O)[C@H](CC(=O)O)NC(=O)[C@H](CC(C)C)NC(=O)[C@H](Cc1c[nH]cn1)NC(=O)[C@H](CS)NC(=O)[C@H](Cc1ccccc1)NC(=O)[C@H](Cc1ccc(O)cc1)NC(=O)[C@@H](NC(=O)[C@H](CS)NC(=O)[C@H](CCC(=O)O)NC(=O)[C@H](CCCCN)NC(=O)[C@H](CC(=O)O)NC(=O)[C@H](CCSC)NC(=O)[C@H](CC(C)C)NC(=O)[C@H](CO)NC(=O)[C@H](CO)NC(=O)[C@H](CS)NC(=O)[C@H](CO)NC(=O)[C@@H](N)CS)C(C)C)[C@H](C)CC)C(=O)N[C@@H](Cc1c[nH]c2ccccc12)C(=O)O | 7.6 | 10 |
| CC[C@@H](C)[C@H](NC(=O)[C@H](CC(=O)O)NC(=O)[C@H](CC(C)C)NC(=O)[C@H](Cc1c[nH]cn1)NC(=O)[C@H](CS)NC(=O)[C@H](Cc1ccccc1)NC(=O)[C@H](Cc1ccc(O)cc1)NC(=O)[C@@H](NC(=O)[C@H](CS)NC(=O)[C@H](CCC(=O)O)NC(=O)[C@H](CCCCN)NC(=O)[C@H](CC(=O)O)NC(=O)[C@H](CCSC)NC(=O)[C@H](CC(C)C)NC(=O)[C@H](CO)NC(=O)[C@H](CO)NC(=O)[C@H](CS)NC(=O)[C@H](CO)NC(=O)[C@@H](N)CS)C(C)C)C(=O)N[C@H](CCC(N)=O)C(=O)N[C@@H](Cc1c[nH]c2ccccc12)C(=O)O | 5.27 | 5.59 |
| CC[C@@H](C)[C@H](NC(=O)[C@H](CC(=O)O)NC(=O)[C@H](CC(C)C)NC(=O)[C@H](Cc1c[nH]cn1)NC(=O)[C@H](CS)NC(=O)[C@H](Cc1ccccc1)NC(=O)[C@H](Cc1ccc(O)cc1)NC(=O)[C@@H](NC(=O)[C@H](CS)NC(=O)[C@H](CCC(=O)O)NC(=O)[C@H](CCCCN)NC(=O)[C@H](CC(=O)O)NC(=O)[C@H](CCSC)NC(=O)[C@H](CC(C)C)NC(=O)[C@H](CO)NC(=O)[C@H](CO)NC(=O)[C@H](CS)NC(=O)[C@H](CO)NC(=O)[C@@H](N)CS)C(C)C)C(=O)N[C@H](Cc1c[nH]cn1)C(=O)N[C@@H](Cc1c[nH]c2ccccc12)C(=O)O | 6.13 | 7.55 |
| CC[C@@H](C)[C@H](NC(=O)[C@H](CC(=O)O)NC(=O)[C@H](CC(C)C)NC(=O)[C@H](Cc1c[nH]cn1)NC(=O)[C@H](CS)NC(=O)[C@H](Cc1ccccc1)NC(=O)[C@H](Cc1ccc(O)cc1)NC(=O)[C@@H](NC(=O)[C@H](CS)NC(=O)[C@H](CCC(=O)O)NC(=O)[C@H](CCCCN)NC(=O)[C@H](CC(=O)O)NC(=O)[C@H](CCSC)NC(=O)[C@H](CC(C)C)NC(=O)[C@H](CO)NC(=O)[C@H](CO)NC(=O)[C@H](CS)NC(=O)[C@H](CO)NC(=O)[C@@H](N)CS)C(C)C)C(=O)N[C@H](C(=O)N[C@@H](Cc1c[nH]c2ccccc12)C(=O)O)C1CCCCC1 | 9.88 | 10 |
| CC[C@@H](C)[C@H](NC(=O)[C@H](CC(=O)O)NC(=O)[C@H](CC(C)C)NC(=O)[C@H](Cc1c[nH]cn1)NC(=O)[C@H](CS)NC(=O)[C@H](Cc1ccccc1)NC(=O)[C@H](Cc1ccc(O)cc1)NC(=O)[C@@H](NC(=O)[C@H](CS)NC(=O)[C@H](CCC(=O)O)NC(=O)[C@H](CCCCN)NC(=O)[C@H](CC(=O)O)NC(=O)[C@H](CCSC)NC(=O)[C@H](CC(C)C)NC(=O)[C@H](CO)NC(=O)[C@H](CO)NC(=O)[C@H](CS)NC(=O)[C@H](CO)NC(=O)[C@@H](N)CS)C(C)C)C(=O)N[C@H](CC(C)C)C(=O)N[C@@H](Cc1c[nH]c2ccccc12)C(=O)O | 7.97 | 9.94 |
| CCC(CC)C[C@@H](NC(=O)[C@@H](NC(=O)[C@H](CC(=O)O)NC(=O)[C@H](CC(C)C)NC(=O)[C@H](Cc1c[nH]cn1)NC(=O)[C@H](CS)NC(=O)[C@H](Cc1ccccc1)NC(=O)[C@H](Cc1ccc(O)cc1)NC(=O)[C@@H](NC(=O)[C@H](CS)NC(=O)[C@H](CCC(=O)O)NC(=O)[C@H](CCCCN)NC(=O)[C@H](CC(=O)O)NC(=O)[C@H](CCSC)NC(=O)[C@H](CC(C)C)NC(=O)[C@H](CO)NC(=O)[C@H](CO)NC(=O)[C@H](CS)NC(=O)[C@H](CO)NC(=O)[C@@H](N)CS)C(C)C)[C@H](C)CC)C(=O)N[C@@H](Cc1c[nH]c2ccccc12)C(=O)O | 8.06 | 9.78 |

From ChEMBL document CHEMBL1127286, “Quantitative structure-activity relationships study of endothelin-1 analogs” (Bioorg Med Chem Lett, 1994)
